The source of these data is patent US20140088187A1, “ANDROGEN RECEPTOR INHIBITORS AND METHODS OF USE THEREOF” (BETH ISRAEL DEACONESS MEDICAL CENTER, priority 2010, published 2014).

Assay [1] concerns the target T1, AR WT (Homo sapiens, UniProt P10275).
T1 construct: The AR WT construct expresses full-length human AR under cmv promoter control; expressed in transfected cells; host or cells: COS7
T1 sequence (P10275 1-920): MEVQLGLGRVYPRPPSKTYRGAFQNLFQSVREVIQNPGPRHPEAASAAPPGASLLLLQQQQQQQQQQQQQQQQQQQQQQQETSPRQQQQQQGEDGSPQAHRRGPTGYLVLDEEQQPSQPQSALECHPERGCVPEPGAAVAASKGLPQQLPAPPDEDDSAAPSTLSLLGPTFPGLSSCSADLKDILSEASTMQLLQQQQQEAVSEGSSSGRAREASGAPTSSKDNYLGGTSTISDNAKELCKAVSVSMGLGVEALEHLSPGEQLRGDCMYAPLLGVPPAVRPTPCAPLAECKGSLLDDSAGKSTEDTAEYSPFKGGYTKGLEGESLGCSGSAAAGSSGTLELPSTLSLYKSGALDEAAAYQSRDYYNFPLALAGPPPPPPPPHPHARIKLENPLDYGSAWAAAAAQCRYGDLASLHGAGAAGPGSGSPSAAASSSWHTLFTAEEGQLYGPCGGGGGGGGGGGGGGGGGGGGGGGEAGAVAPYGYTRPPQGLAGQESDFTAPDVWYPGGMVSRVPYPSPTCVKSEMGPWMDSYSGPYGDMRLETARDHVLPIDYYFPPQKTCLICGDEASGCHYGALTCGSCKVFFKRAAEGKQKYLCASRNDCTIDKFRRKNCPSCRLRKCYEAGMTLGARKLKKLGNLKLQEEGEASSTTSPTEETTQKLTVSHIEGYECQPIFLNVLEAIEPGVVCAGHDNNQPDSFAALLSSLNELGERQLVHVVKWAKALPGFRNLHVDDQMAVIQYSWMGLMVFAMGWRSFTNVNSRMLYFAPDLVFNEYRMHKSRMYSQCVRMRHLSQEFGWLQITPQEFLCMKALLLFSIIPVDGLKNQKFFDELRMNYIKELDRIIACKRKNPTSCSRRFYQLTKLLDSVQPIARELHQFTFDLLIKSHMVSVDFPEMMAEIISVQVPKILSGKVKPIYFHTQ
In words: AR expression levels in transiently transfected COS7 cells, AR WT. It counts as cell-based. As to conditions: 24 hours.

In assay [2] the target is T2, AR in C4-2 cells (Homo sapiens, UniProt P10275, T878A).
T2 sequence (P10275 1-920 T878A): T1 sequence (P10275 1-920) with T878A

Assay [3] concerns the target T3, wild-type AR in PC3-AR cells (Homo sapiens, UniProt P10275).
T3 construct: expressed in transfected cells
T3 sequence (P10275 1-920): T1 sequence (P10275 1-920)
In words: AR protein levels and degradation (cycloheximide) in PC3-AR cells. In kind it is cell-based. The procedure: As LNCaP and C4-2 cells express the T877A mutant AR, we next examined PC3-AR cells expressing wildtype AR. As observed in C4-2 cells, A89 caused a decrease in AR protein levels (FIG. 10d). To further validate that this was due to increased AR protein degradation, we pretreated these cells with A89 for 2 hours and then blocked new protein synthesis with cycloheximide (CHX). […] We finally examined VCaP cells.

[4] abbreviates: steroid depleted medium, data not shown.
Setting [5] is: steroid depleted medium, dose response.

Substitutions are numbered along the chain they refer to.

`CCOc1cc(F)c(S(=O)(=O)NCc2ccc3c(c2)OCO3)cc1F` [Compound A89, N-(1,3-benzodioxol-5-ylmethyl)-4-ethoxy-2,5-difluorobenzenesulfonamide]: in assay [1], the “AR WT protein levels” value is “decreased in a dose dependent manner”. Besides, in assay [2] (24 hours (FIG. 10a)), the “basal PSA” value is “decrease in basal PSA” and the “total AR protein levels” value is “noteworthy decrease”. In addition, the “decrease in AR protein in the presence of proteasome inhibitor” value in assay [2] (proteasome inhibitors (MG115 and MG132)) is “blocked in the presence of a proteasome inhibitor”. In addition, in assay [2] (setting [4]), the PSA expression entry is given as “reduced” and the “nuclear AR levels” value is on record as “reduced nuclear AR levels”. For the same molecule, in assay [2] (setting [5]), the AR protein entry was “dose dependent decrease” and the PSA levels entry is “dose dependent decrease”. Besides, the “time within which AR protein decreased” value in assay [3] (A89 10 μM, PC3-AR cells) was at most 4 h. The “time within which total AR protein dramatically decreased after cycloheximide (CHX)” value in assay [3] (A89 treated PC3-AR cells plus CHX) was at most 1 h. The AR protein levels entry in assay [3] (PC3-AR cells expressing wildtype AR) was “decrease”. For the same molecule, the “AR protein levels after cycloheximide” value in assay [3] (PC3-AR cells pretreated with A89 for 2 hours, then 1 hour CHX, versus CHX alone) is on record as “declined markedly”.
